According to the NIST ThermoML archive (doi:10.1016/j.fluid.2010.01.002):
± gives the expanded uncertainty stated by the source.

Key:
[1] = mn = molality of the nth substance listed, in mol/kg; conditions: 101 kPa, Liquid, Vibrating tube method
[2] = refractive index (Na D-line) (dimensionless); conditions: 101.33 kPa, Liquid, Standard Abbe refractometry
[3] = 101.33 kPa, Liquid; for viscosity: Capillary tube (Ostwald / Ubbelohde) method; for mass density: Vibrating tube method

COS(=O)(=O)[O-].Cn1cc[n+](C)c1 [1,3-dimethylimidazolium methylsulfate] + CO
mass density [kg/m3], [1]
Conditions	298.15 K	308.15 K	318.15 K	328.15 K
m1 = 0.0108	787.65 ± 0.13	778.14 ± 0.13	768.55 ± 0.13	758.82 ± 0.14
m1 = 0.0199	788.47 ± 0.13	778.98 ± 0.13	769.42 ± 0.13	759.7 ± 0.14
m1 = 0.0341	789.69 ± 0.13	780.24 ± 0.13	770.71 ± 0.13	761.02 ± 0.14
m1 = 0.0419	790.3 ± 0.13	780.9 ± 0.13	771.38 ± 0.13	761.68 ± 0.14
m1 = 0.0531	791.11 ± 0.12	781.85 ± 0.13	772.32 ± 0.13	762.63 ± 0.14
m1 = 0.0711	792.35 ± 0.12	783.26 ± 0.13	773.6 ± 0.13	764.11 ± 0.13
m1 = 0.0929	794.09 ± 0.12	784.9 ± 0.13	775.34 ± 0.13	765.65 ± 0.13
m1 = 0.1212	796.29 ± 0.12	787.16 ± 0.13	777.61 ± 0.13	767.99 ± 0.13
m1 = 0.1679	799.9 ± 0.12	790.82 ± 0.13	781.31 ± 0.13	771.8 ± 0.13
m1 = 0.2084	802.98 ± 0.12	793.97 ± 0.12	784.46 ± 0.13	775.01 ± 0.13
m1 = 0.2504	806.12 ± 0.12	797.15 ± 0.12	787.7 ± 0.13	778.32 ± 0.13
m1 = 0.2973	809.59 ± 0.12	800.65 ± 0.12	791.16 ± 0.13	781.85 ± 0.13
m1 = 0.3949	816.69 ± 0.12	807.86 ± 0.12	798.36 ± 0.13	789.21 ± 0.13
m1 = 0.4965	823.95 ± 0.12	815.03 ± 0.12	805.55 ± 0.12	796.68 ± 0.13
m1 = 0.5976	831 ± 0.11	822.1 ± 0.12	812.65 ± 0.12	803.73 ± 0.12
m1 = 0.7303	839.93 ± 0.11	830.93 ± 0.12	821.45 ± 0.12	812.4 ± 0.12
m1 = 0.9907	856.57 ± 0.11	847.45 ± 0.11	838.09 ± 0.12	828.74 ± 0.12

CC#N [acetonitrile]
Conditions	mass density, [3] [kg/m3]	refractive index, [2]	viscosity, [3] [mPa·s]
298.15 K	776.59 ± 0.13	1.3411 ± 0.0004	0.3431 ± 0.0047
308.15 K	765.76 ± 0.14	1.3365 ± 0.0004	0.3171 ± 0.0046
318.15 K	754.67 ± 0.14	1.3327 ± 0.0004	0.2918 ± 0.0046
328.15 K	743.6 ± 0.14	1.3259 ± 0.0004	0.268 ± 0.0045

COS(=O)(=O)[O-].Cn1cc[n+](C)c1 [1,3-dimethylimidazolium methylsulfate] + CC#N
mass density [kg/m3], [1]
Conditions	298.15 K	308.15 K	318.15 K	328.15 K
m1 = 0.0154	778.02 ± 0.13	767.2 ± 0.14	756.08 ± 0.14	745.07 ± 0.14
m1 = 0.0262	778.92 ± 0.13	768.15 ± 0.14	757.02 ± 0.14	746.08 ± 0.14
m1 = 0.0367	779.78 ± 0.13	769.04 ± 0.13	757.94 ± 0.14	746.91 ± 0.14
m1 = 0.0442	780.39 ± 0.13	769.64 ± 0.13	758.56 ± 0.14	747.53 ± 0.14
m1 = 0.0552	781.25 ± 0.13	770.6 ± 0.13	759.47 ± 0.14	748.49 ± 0.14
m1 = 0.0697	782.39 ± 0.13	771.79 ± 0.13	760.65 ± 0.14	749.74 ± 0.14
m1 = 0.1092	785.54 ± 0.13	775.06 ± 0.13	763.89 ± 0.14	753.13 ± 0.14
m1 = 0.1516	788.85 ± 0.13	778.45 ± 0.13	767.29 ± 0.14	756.65 ± 0.14
m1 = 0.2159	793.88 ± 0.13	783.51 ± 0.13	772.5 ± 0.13	761.83 ± 0.14
m1 = 0.2981	799.99 ± 0.12	789.92 ± 0.13	779.03 ± 0.13	768.5 ± 0.14
m1 = 0.4347	809.98 ± 0.12	799.82 ± 0.13	788.98 ± 0.13	778.24 ± 0.13
m1 = 0.5442	817.8 ± 0.12	807.73 ± 0.12	797.07 ± 0.13	786.34 ± 0.13
m1 = 0.8609	839.07 ± 0.12	828.64 ± 0.12	818.22 ± 0.12	808.33 ± 0.13

CN(C)C=O [dimethylformamide]
Conditions	mass density, [3] [kg/m3]	refractive index, [2]	viscosity, [3] [mPa·s]
298.15 K	943.8 ± 0.1	1.4267 ± 0.0004	0.8605 ± 0.0067
308.15 K	934.45 ± 0.11	1.4225 ± 0.0004	0.7712 ± 0.0063
318.15 K	924.75 ± 0.11	1.418 ± 0.0004	0.6975 ± 0.006
328.15 K	914.9 ± 0.11	1.4144 ± 0.0004	0.6374 ± 0.0058

C[S+](C)[O-] [dimethyl sulfoxide]
Conditions	mass density, [3] [kg/m3]	refractive index, [2]	viscosity, [3] [mPa·s]
298.15 K	1095.27 ± 0.13	1.4737 ± 0.0004	1.979 ± 0.013
308.15 K	1085.18 ± 0.13	1.4701 ± 0.0004	1.622 ± 0.01
318.15 K	1075.24 ± 0.12	1.4668 ± 0.0004	1.381 ± 0.0092
328.15 K	1065.16 ± 0.12	1.462 ± 0.0004	1.207 ± 0.0083

COS(=O)(=O)[O-].Cn1cc[n+](C)c1 [1,3-dimethylimidazolium methylsulfate] + CN(C)C=O
mass density [kg/m3], [1]
Conditions	298.15 K	308.15 K	318.15 K	328.15 K
m1 = 0.0143	945.09 ± 0.1	935.57 ± 0.11	925.94 ± 0.11	916.21 ± 0.11
m1 = 0.0192	945.45 ± 0.1	935.93 ± 0.11	926.32 ± 0.11	916.62 ± 0.11
m1 = 0.0305	946.29 ± 0.1	936.8 ± 0.11	927.22 ± 0.11	917.63 ± 0.11
m1 = 0.0455	947.35 ± 0.1	937.9 ± 0.11	928.37 ± 0.11	918.8 ± 0.11
m1 = 0.06	948.34 ± 0.1	938.95 ± 0.11	929.46 ± 0.11	919.9 ± 0.11
m1 = 0.0821	949.86 ± 0.1	940.49 ± 0.11	930.98 ± 0.11	921.44 ± 0.11
m1 = 0.1125	951.98 ± 0.1	942.64 ± 0.11	933.15 ± 0.11	923.55 ± 0.11
m1 = 0.1679	955.78 ± 0.1	946.48 ± 0.11	937.03 ± 0.11	927.44 ± 0.11
m1 = 0.2459	961 ± 0.1	951.8 ± 0.11	942.42 ± 0.11	932.69 ± 0.11
m1 = 0.3069	964.96 ± 0.1	955.78 ± 0.11	946.45 ± 0.11	936.8 ± 0.11
m1 = 0.6259	984.18 ± 0.1	975.15 ± 0.11	965.75 ± 0.11	956.63 ± 0.11

COS(=O)(=O)[O-].Cn1cc[n+](C)c1 [1,3-dimethylimidazolium methylsulfate]
Conditions	mass density, [3] [kg/m3]	refractive index, [2]	viscosity, [3] [mPa·s]
298.15 K	1341.52 ± 0.52	1.481 ± 0.0004	72.16 ± 0.59
308.15 K	1334.05 ± 0.52	1.4782 ± 0.0004	54.42 ± 0.3
318.15 K	1324.8 ± 0.51	1.475 ± 0.0004	31.75 ± 0.22
328.15 K	1320.61 ± 0.5	1.4732 ± 0.0004	22.75 ± 0.15

COS(=O)(=O)[O-].Cn1cc[n+](C)c1 [1,3-dimethylimidazolium methylsulfate] + C[S+](C)[O-]
mass density [kg/m3], [1]
Conditions	298.15 K	308.15 K	318.15 K	328.15 K
m1 = 0.0129	1095.83 ± 0.13	1085.98 ± 0.13	1075.96 ± 0.13	1065.92 ± 0.12
m1 = 0.0148	1095.95 ± 0.13	1086.09 ± 0.13	1076.07 ± 0.12	1066.03 ± 0.12
m1 = 0.0289	1096.8 ± 0.13	1086.89 ± 0.13	1076.88 ± 0.13	1066.84 ± 0.12
m1 = 0.0374	1097.18 ± 0.14	1087.35 ± 0.13	1077.34 ± 0.13	1067.32 ± 0.12
m1 = 0.0433	1097.5 ± 0.14	1087.65 ± 0.13	1077.66 ± 0.13	1067.64 ± 0.12
m1 = 0.0517	1097.95 ± 0.14	1088.1 ± 0.13	1078.12 ± 0.13	1068.11 ± 0.12
m1 = 0.0632	1098.58 ± 0.14	1088.71 ± 0.13	1078.72 ± 0.13	1068.74 ± 0.12
m1 = 0.0897	1100 ± 0.14	1090.12 ± 0.13	1080.15 ± 0.13	1070.19 ± 0.12
m1 = 0.1221	1101.67 ± 0.14	1091.81 ± 0.13	1081.86 ± 0.13	1071.93 ± 0.13
m1 = 0.1501	1103.05 ± 0.14	1093.21 ± 0.14	1083.28 ± 0.13	1073.4 ± 0.13
m1 = 0.1878	1104.92 ± 0.14	1095.1 ± 0.14	1085.22 ± 0.13	1075.36 ± 0.13
m1 = 0.2351	1107.24 ± 0.14	1097.42 ± 0.14	1087.6 ± 0.13	1077.78 ± 0.13
m1 = 0.2852	1109.64 ± 0.15	1099.85 ± 0.14	1090.06 ± 0.14	1080.29 ± 0.13
m1 = 0.3822	1114 ± 0.15	1104.38 ± 0.15	1094.63 ± 0.14	1084.97 ± 0.14
m1 = 0.5216	1120.2 ± 0.16	1110.59 ± 0.15	1100.91 ± 0.15	1091.34 ± 0.14
m1 = 0.8153	1132.05 ± 0.17	1122.58 ± 0.16	1113.1 ± 0.16	1103.75 ± 0.15

CO [methanol]
Conditions	mass density, 298.15 K [kg/m3]	mass density, 308.15 K [kg/m3]	mass density, 318.15 K [kg/m3]	mass density, 328.15 K [kg/m3]	refractive index, 298.15 K	refractive index, 308.15 K	refractive index, 318.15 K	refractive index, 328.15 K	viscosity, 318.15 K [mPa·s]	viscosity, 328.15 K [mPa·s]
[2]	–	–	–	–	1.3272 ± 0.0004	1.3232 ± 0.0004	1.3185 ± 0.0004	1.3158 ± 0.0004	–	–
[3]	786.53 ± 0.13	777.09 ± 0.13	767.48 ± 0.13	757.75 ± 0.14	–	–	–	–	0.5962 ± 0.0055	0.4792 ± 0.0051

O [water]
Conditions	mass density, 328.15 K [kg/m3]	refractive index, 298.15 K	refractive index, 308.15 K	refractive index, 318.15 K	refractive index, 328.15 K	viscosity, 298.15 K [mPa·s]	viscosity, 308.15 K [mPa·s]	viscosity, 318.15 K [mPa·s]	viscosity, 328.15 K [mPa·s]
[2]	–	1.3325 ± 0.0004	1.3313 ± 0.0004	1.3298 ± 0.0004	1.3282 ± 0.0004	–	–	–	–
[3]	985.62 ± 0.05	–	–	–	–	0.8949 ± 0.0066	0.7207 ± 0.0059	0.5962 ± 0.0055	0.5042 ± 0.0052
